In ChEMBL document CHEMBL1772945, “Bioactive compounds from the scale insect pathogenic fungus Conoideocrella tenuis BCC 18627” (J Nat Prod, 2011):
Converted amounts (≈) assume the structure as drawn. Where a name gives a salt, the structure may show the parent alone.

Key:
Plasmodium falciparum = experiment: Antimalarial activity against multi-drug-resistant Plasmodium falciparum K1 by microculture radioisotope technique; assay type: functional, organism-based
MCF7 = experiment: Cytotoxicity against human MCF7 cells after 45 hrs by resazurin microplate assay; assay type: functional, cell-based; settings: MCF7, 45 h
Human alphaherpesvirus 1 = experiment: Antiviral activity against HSV-1 by green fluorescent protein microplate assay; assay type: functional, organism-based
Vero = experiment: Cytotoxicity against african green monkey Vero cells by green fluorescent protein microplate assay; assay type: cell-based; settings: Chlorocebus sabaeus
KB = experiment: Cytotoxicity against human KB cells after 45 hrs by resazurin microplate assay; assay type: functional, cell-based
[1] = test system: Mycobacterium tuberculosis; experiment: Antitubercular activity against Mycobacterium tuberculosis H37Ra by green fluorescent protein microplate assay; assay type: functional
NCI-H187 = experiment: Cytotoxicity against human NCI-H187 cells after 45 hrs by resazurin microplate assay; assay type: functional, cell-based; settings: NCI-H187, 45 h

Structure (SMILES)	IC50 (Plasmodium falciparum) [µM]	IC50 (MCF7) [µM]	IC50 (Human alphaherpesvirus 1) [µM]	IC50 (Vero) [µM]	IC50 (KB) [µM]	MIC [1] [µM]	IC50 (NCI-H187) [µM]
CC(C)(O)[C@H]1CC[C@]2(C)[C@H]3C[C@@H](O)[C@@H]4[C@@]5(C)CCCC(C)(C)[C@@H]5[C@H](O)C[C@@]4(C)[C@]3(C=O)CC[C@@H]12	> 21	28	21	69	10	> 105	68
CC(C)(O)[C@H]1CC[C@]2(C)[C@H]3C[C@@H](O)[C@@H]4[C@@]5(C)CCCC(C)(C)[C@@H]5[C@H](O)C[C@@]4(C)[C@]3(CO)CC[C@@H]12	9.8	15	14	47	5.6	52 (≈ 24.8 µg/mL)	47
CC(C)(O)[C@H]1CC[C@]2(C)[C@H]3CC[C@@H]4[C@@]5(C)CCCC(C)(C)[C@@H]5[C@H](O)[C@H](O)[C@@]4(C)[C@]3(C)CC[C@@H]12	> 22	> 109	> 109	> 109	> 109	> 109	> 109
COc1cc(OC)c2c(O)c3c(c(-c4c(OC)cc(OC)c5c(O)c6c(cc45)[C@H](OC(C)=O)[C@H](C)OC6)c2c1)[C@H](OC(C)=O)[C@H](C)OC3	15	37	> 75	> 75	15	> 75	12
COc1cc(OC)c2c(O)c3c(c(-c4c5c(c(O)c6c(OC)cc(OC)cc46)CO[C@@H](C)[C@H]5OC(C)=O)c2c1)[C@H](OC(C)=O)[C@H](C)OC3	10	22	> 75	> 75	4.4	> 75	71
Nc1nc2c(ncn2COCCO)c(=O)[nH]1 [ACYCLOVIR]	–	–	17	–	–	–	–
COc1cccc2c1C(=O)c1c(O)c3c(c(O)c1C2=O)C[C@@](O)(C(=O)CO)C[C@@H]3O[C@H]1C[C@H](N)[C@H](O)[C@H](C)O1 [DOXORUBICIN HYDROCHLORIDE]	–	4.9	–	–	0.27	–	0.23
Cc1c2ccncc2c(C)c2c1[nH]c1ccccc12 [ELLIPTECINE]	–	–	–	12	–	–	–
